Measurements reported in US9410947B2, “Fluorescent dyes and related methods” (University of Washington through its Center for …, priority 2012, dated 2016).
“Also recorded” adds a separate entry of the source. Each block holds one compound with its values, some of them ahead of it.

Legend:
[1] = tested on: salmon sperm DNA; assay: Photometric (colorimetric) titration of dye solutions with DNA, Scatchard / n-K fit; format: binding
Experimental: Dye/DNA binding was assessed. The binding constant and number of dye molecules bound per base pair were assessed by means of photometric titrations (Peacocke, A. R.; Skerrett, J. N. H., Trans. Faraday Soc. 1956, 52, 261, Angerer, L. M.; Moudrianakis, E. N., J. Mol. Bio. 1972, 63, 505-521) of dye solutions with commercially available salmon sperm DNA (Sigma Aldrich, MW 50 kD to 100 kD) in 10 mM TE buffer at pH 7.2. Experiments were run using a temperature-controlled Ocean Optics diode array spectrophotometer at 25.0° C., with 2.5 mL of dye solution at a concentration sufficient for an initial optical density near 0.75, adding 1.5 mM DNA solution in 30 μL aliquots.
This example describes affinity of DANPY-1 to DNA. […] These experiments were analyzed using the Scatchard equation (Scatchard, G., Ann. N.Y. Acad. Sci. 1949, 51, 662-672.) […]
A titration methodology was also used. Dyes were evaluated for their DNA-binding properties by means of colorimetric titrations in buffered aqueous solution (1×TE buffer titrated to pH 7.2 with HCl). […] After allowing the solution to mix for about one minute, the stirrer was stopped and a spectrum was recorded. If the initial absorbance of the dye was ≧1, the dye solution was diluted with the appropriate solvent (TE buffer, methanol, or butanol) until the initial absorbance was <1. […] The reduced absorbance change […]

[2] = QCM-D binding study, bare SiO2 control; details: pH 7.2 1×TE buffer, 298 K
Description: (§1) In yet another aspect, the present disclosure includes methods for quantifying nucleic acid molecules in a sample. For example, the present disclosure can include a method of determining a quantity of a nucleic acid molecule in a sample using the Quartz Crystal Microbalance with Dissipation Monitoring (QCM-D) method. QCM-D can be used to determine the formation of films (e.g., nm in thickness). For example, films may be formed on a surface from proteins, polymers, surfactants and cells. QCM-D can detect films formed in liquid and may be used to determine binding kinetics of, for example, cationic dyes (e.g., ethidium bromide, DANPY-1 and/or DAST). For example, a Q-Sense instrument (e.g., a Q-Sense E4 instrument, Biolin Scientific AB, Stockholm) can be used for QCM-D using a dedicated set of QCM sensors (e.g., SiO2-coated). The procedures of cleaning, deposition, mass monitoring, and preparing nucleic acid for QCM-D are known. (R. J. Rawle, C. R. D. Selassie, M. S. Johal, Langmuir 2007, 23, 9563-9566). Data can be output as kinetics that can include structural changes and mass changes. The crystals can be, for example, coated with a polyethylene imine (PEI) layer to enable binding of anionic nucleic acids. The crystals can be, for example, coated with a polymer polystyrene sulfonate (PSS), that only undergoes loose electrostatic binding. […]

[3] = tested on: tRNA; assay: QCM-D binding study, tRNA layer; details: pH 7.2 1×TE buffer, 298 K, 0.3 mL/min, rinse ten minutes
Description: as §1

[4] = QCM-D binding study, PSS control polymer; details: pH 7.2 1×TE buffer, 298 K
Description: as §1

[5] = QCM-D binding study, PEI layer
Description: The three nucleic acids (e.g., single-stranded DNA (ssDNA), double-stranded DNA (dsDNA), and transfer RNA (tRNA)) used in this example are anionic. The crystals were coated with a polyethylene imine (PEI) layer to create a surface and enable binding of the nucleic acids. […] Polystyrene sulfonate (PSS) was used as a control polymer. As controls, PSS which can only undergo loose electrostatic binding, and bare SiO2 were used. Any materials used for coating were allowed to deposit until a stable mass was reached (e.g., for five minutes) followed by five minutes of rinsing with buffer between each layer; (1) PEI or PSS, (2) nucleic acid and (3) the dye. After deposition, the film was rinsed with buffer for ten minutes. If the adsorbed mass returned to near the form immediately prior to the addition of the dye, then remained stable, the binding was characterized as reversible. Binding was characterized as irreversible if the mass remained constant after rinsing or leveled off at a substantially higher value than before the dye was added.

[6] = tested on: dsDNA; assay: QCM-D binding study, dsDNA layer; design: species or system salmon; details: pH 7.2 1×TE buffer, 298 K, 0.3 mL/min, rinse ten minutes
Description: as §1

[7] = tested on: ssDNA; assay: QCM-D binding study, ssDNA layer; design: species or system salmon; details: pH 7.2 1×TE buffer, 298 K, 0.3 mL/min, rinse ten minutes
Description: as §1

[8] = in chloroform, extrapolated to zero frequency; cited from earlier work
[9] = Solubility in solvents; format: physicochemical
[10] = tested on: Prorocentrum minimum; assay: Flow cytometric analysis of DNA staining in alga; format: cell-based; details: 1% DMSO
Description: In another aspect, this example describes a set of experiments to investigate DANPY-1 dye for use in flow cytometric analysis of DNA. The alga Prorocentrum minimum was selected for these studies. Several controls were run to: (a) ensure that cell integrity was maintained, (b) assess the contribution of unbound DANPY-1 to fluorescent background signals and (c) determine a dye concentration and the intensity of the fluorescent signal when the target DNA is fully saturated with bound dye. The DANPY-1 concentrations that were tested in these preliminary experiments ranged from 7.1 μM to 228 μM. All of the flow cytometric work was performed on an Accuri C6 flow cytometer (BD Scientific, Ann Arbor, Mich.). The excitation wavelength for the FL1, FL2, and FL3 detectors (or channels) is 488 nm and the FL4 laser excites at a wavelength of 640 nm. The fluorescent wavelengths that each channel detects are as follows: FL1 530/30, FL2 585/40, FL3 670 LP and FL4 675/25. These experiments are summarized below (data not shown): […]

Compound: trans-4-[4-(Dimethylamino)styryl]-1-methylpyridinium toluenesulfonate [DAST]
shift in absorbance maximum upon addition of DNA ([1]; TE buffer): exhibited a shift in absorbance maximum
QCM-D binding to SiO2 [2]: Reversible
QCM-D binding to tRNA [3]: did not interact strongly; also recorded: Reversible
QCM-D binding to PSS [4]: interacted strongly; also recorded: Partially
QCM-D binding to PEI layer [5]: did not bind
QCM-D binding to dsDNA [6]: did not interact strongly and None
QCM-D binding to ssDNA [7]: interacted strongly; also recorded: Irreversible

solubility in water ([9]; water): not sufficiently soluble
Compound: CCN(CCO)c1ccc(N=Nc2ccc([N+](=O)[O-])cc2)cc1 [DR1, Disperse Red 1]
change in the absorbance peak on titration with DNA ([1]; 1:1 TE buffer and ethanol): no substantial change in the absorbance peak
static hyperpolarizability βzzz(0) [8]: 54±5 10^−30 esu

solubility in standard spin-coating solvents ([9]; TCE and cyclopentanone): poorly soluble
solubility in butanol ([9]; butanol): poorly soluble
solubility in lower alcohols ([9]; methanol, ethanol, and n-propanol): highly soluble
cell concentration ([10]; 7.1 μM dye, 10 minute exposure): 1.02e5 cells/mL
impact on cell integrity ([10]; 7.1 μM dye, 10 minute exposure): no impact on cell integrity
cell concentration ([10]; 57 μM dye, 10 minute exposure): 9.5e4 cells/mL
impact on cell integrity ([10]; 57 μM dye, 10 minute exposure): no impact on cell integrity
mean FU intensity FL-1 channel ([10]; 57 μM dye, FL1 530/30, ex 488 nm): 17951 FU
mean FU intensity FL-2 channel ([10]; 57 μM dye, FL2 585/40, ex 488 nm): 167481 FU
cell concentration ([10]; 228 μM dye, 10 min exposure): 8.1e4 cells/mL
impact on cell integrity ([10]; 228 μM dye, 10 min exposure): some impact on cell integrity
Compound: CC(=O)[O-].CN(C)c1ccc2cc(-c3cc[n+](C)cc3)ccc2c1 [DANPY-1, dimethylaminonaphthylpyridinium]
mean fluorescent intensity FL-1 channel ([10]; 7.1 μM dye, FL1 530/30, ex 488 nm): 6032
mean fluorescent intensity FL-2 channel ([10]; 7.1 μM dye, FL2 585/40, ex 488 nm): 40801
mean fluorescent intensity FL-1 channel ([10]; 228 μM dye, FL1 530/30, ex 488 nm): 26131
mean fluorescent intensity FL-2 channel ([10]; 228 μM dye, FL2 585/40, ex 488 nm): 412988
